# Read-outs that look alike come from different tables or passages of the source. Marks after values point to notes of the source that are not given here.
# Tests used:
# [1] = biological target: T1, human serum albumin (HSA), Trp-214 in Sudlow’s site I (Homo sapiens, UniProt P02768); settings: cited from earlier work; for logK Q′ (quenching constant): organometallic precursors, PBS’, t = 25 °C
# T1 construct: purchased Sigma-Aldrich A8763
# [2] = test system: MCF-7; assay: PrestoBlue cytotoxicity assay; format: cell-based
# Description: (§1) MDA-MB-231 breast adenocarcinoma and MCF-7 and T-47D invasive breast carcinomas were purchased from the Developmental Therapeutic Program of the National Cancer Institute (NIH, USA), and they were cultured in RPMI medium (Thermo Fisher). MES–SA and MES–SA/Dx5 uterine sarcoma cell lines were purchased from American Type Culture Collection and were kept in DMEM (Thermo Fisher). MES–SA/B1 was created by the transfection of the human MDR1 gene in MES–SA, and MES–SA mCherry, MES–SA/B1 mOrange, and MES–SA/Dx5 eGFP were engineered to stably express the respective fluorescent proteins, as described previously. Culture media were supplemented with 10% fetal bovine serum, 2 mM L-glutamine, 100 units/mL penicillin, and 100 μg/mL streptomycin (Thermo Fisher). Cells were kept at 37 °C under 5% CO2 and were negative for mycoplasma infection.
# (§2) Cytotoxicity of the nonfluorescent cancer cells (MDA-MB-231, MCF-7, T-47D) were assessed with PrestoBlue cell viability reagent (Thermo Fisher). Briefly, 2500 cells/well were seeded on 384-well plates, and then the next day drugs were added. After 72 h incubation, PrestoBlue was added in a 10% final concentration, and after an hour of additional incubation, plates were measured with a PerkinElmer EnSpire plate reader at 555 nm/585 nm excitation/emission wavelengths. Fluorescent cells (MES-SA mCherry, MES-SA/B1 mOrange, MES-SA/Dx5 eGFP) were admixed before seeding on 384-well plates at 800 cells/well density each, thus altogether 2400 cells/well. Drugs were added the following day, and the intensity of the fluorescent proteins were measured after 144 h incubation at the respective fluorescent channels (excitation/emission: eGFP: 485 nm/510 nm; mCherry: 585 nm/610 nm; mOrange: 545 nm/567 nm). pIC50 values were calculated by a custom program written by Judit Sessler in C#. IC50 values and standard deviation were calculated from average pIC50 values from at least 3 independent measurements. Since the IC50 values were obtained through nonlinear regression fitting of the viability vs. log(concentration) data, the resulting confidence intervals are inherently asymmetric (see pIC50 values and their corresponding SD in Tables S5 and S6).
# [3] = test system: MDA-MB-231; assay: PrestoBlue cytotoxicity assay; format: cell-based
# Description: as §1, §2
# [4] = test system: T47D; assay: PrestoBlue cytotoxicity assay; format: cell-based
# Description: as §1, §2
# [5] = test system: MDA-MB-231, MCF-7 and T-47D breast cancer cell lines; assay: PrestoBlue cytotoxicity, range over the three breast cancer lines; format: cell-based; settings: MDA-MB-231, MCF-7, T-47D; 72 h
# Description: The PHEN-derived ligands (DCP, BP) (together with PHEN for comparison) and the isolated complexes ([RuCym(DCP)-Cl]-Cl, [RhCp*(DCP)-Cl]-Cl, [RuCym(BP)-Cl]-Cl, [RhCp*(BP)-Cl]-Cl) were tested against the estrogen receptor (ER) negative MDA-MB-231, and the ER positive MCF-7 and T-47D breast cancer cell lines (Table , and Figure a for easier comparison).
# as §1
# as §2, with “measurements.” for “measurements. Since the IC50 values were obtained through nonlinear regression fitting of the viability vs. log(concentration) data, the resulting confidence intervals are inherently asymmetric (see pIC50 values and their corresponding SD in Tables S5 and S6).”
# [6] = test system: MES-SA mCherry; assay: fluorescent triple coculture cytotoxicity assay; format: cell-based, human; settings: 384-well plate
# Text: (§3) Cytotoxicity of the compounds were further tested also in an in vitro MDR model system, consisting of an MES-SA uterine sarcoma cell line, and its P-gp (ABCB1) overexpressing variants MES-SA/B1, that was genetically engineered to express P-gp, and MES-SA/Dx5, which acquired a P-gp-mediated MDR phenotype due to selection in doxorubicin. , The expression of different fluorescent proteins in each line (mCherry, mOrange, or eGFP) allowed coculturing of these three cell lines, providing more relevant data compared to monocultures, as the interaction between parental and resistant phenotypes is reflected in cytotoxicity.
# (§4) Cytotoxicity of nanoformulated [RhCp*(BP)-Cl]-Cl with cross-linked HSA and HTP carriers was tested against the previously introduced triple coculture of fluorescent MES-SA cells with a slight difference. Namely, the media containing the dissolved products were removed from the wells, and fresh media was added prior to the measurement as the presence of cross-linked HSA and HTP formulations interfered with the fluorescence of the cells.
# as §1
# as §2, with “Fluorescent cells (MES-SA mCherry, MES-SA/B1 mOrange, MES-SA/Dx5 eGFP) were admixed before seeding on 384-well plates at 800 cells/well density each, thus altogether 2400 cells/well.” left out
# [7] = test system: MES-SA/B1-mOrange; assay: fluorescent triple coculture cytotoxicity assay; format: cell-based, human; settings: 384-well plate; for SR (MES-SA/B1): selectivity ratio versus parental MES-SA
# Text: as §3, §4, §1
# as §2, with “Fluorescent cells (MES-SA mCherry, MES-SA/B1 mOrange, MES-SA/Dx5 eGFP) were admixed before seeding on 384-well plates at 800 cells/well density each, thus altogether 2400 cells/well.” left out
# [8] = test system: MES-SA/Dx5-eGFP; assay: fluorescent triple coculture cytotoxicity assay; format: cell-based, human; settings: 384-well plate; for SR (MES-SA/Dx5): selectivity ratio versus parental MES-SA
# Text: as §3, §4, §1
# as §2, with “Fluorescent cells (MES-SA mCherry, MES-SA/B1 mOrange, MES-SA/Dx5 eGFP) were admixed before seeding on 384-well plates at 800 cells/well density each, thus altogether 2400 cells/well.” left out
# [9] = biological target: T2, HSA Sudlow’s site I (IIA subdomain) (Homo sapiens, UniProt P02768); settings: organometallic precursors; PBS’; t = 25 °C; ref footnote a (ref 56); cited from earlier work
# T2 construct: purchased Sigma-Aldrich A8763
# [10] = Homo sapiens, 72 h, 384-well plate, read-out: IC50
# [11] = Homo sapiens, Table S5, read-out: pIC50 (mean) (converted)
# [12] = Homo sapiens, MES-SA, 144 h, MES-SA mCherry, coculture, 144 h, read-out: IC50
# [13] = Homo sapiens, MES-SA, Mes-Sa mCherry, Table S6, read-out: pIC50 (mean) (converted)
# [14] = MES-SA mCherry, coculture, 144 h, read-out: IC50
# [15] = Homo sapiens, MES-SA/B1-mOrange, coculture, 144 h, read-out: IC50
# [16] = Homo sapiens, Mes-Sa/B1 mOrange, Table S6, read-out: pIC50 (mean) (converted)
# [17] = Homo sapiens, MES-SA/Dx5-eGFP, coculture, 144 h, read-out: IC50
# [18] = Homo sapiens, Mes-Sa/Dx5 eGFP, Table S6, read-out: pIC50 (mean) (converted)
# [19] = 72 h, 384-well plate, read-out: IC50
# T1 sequence (P02768 25-609): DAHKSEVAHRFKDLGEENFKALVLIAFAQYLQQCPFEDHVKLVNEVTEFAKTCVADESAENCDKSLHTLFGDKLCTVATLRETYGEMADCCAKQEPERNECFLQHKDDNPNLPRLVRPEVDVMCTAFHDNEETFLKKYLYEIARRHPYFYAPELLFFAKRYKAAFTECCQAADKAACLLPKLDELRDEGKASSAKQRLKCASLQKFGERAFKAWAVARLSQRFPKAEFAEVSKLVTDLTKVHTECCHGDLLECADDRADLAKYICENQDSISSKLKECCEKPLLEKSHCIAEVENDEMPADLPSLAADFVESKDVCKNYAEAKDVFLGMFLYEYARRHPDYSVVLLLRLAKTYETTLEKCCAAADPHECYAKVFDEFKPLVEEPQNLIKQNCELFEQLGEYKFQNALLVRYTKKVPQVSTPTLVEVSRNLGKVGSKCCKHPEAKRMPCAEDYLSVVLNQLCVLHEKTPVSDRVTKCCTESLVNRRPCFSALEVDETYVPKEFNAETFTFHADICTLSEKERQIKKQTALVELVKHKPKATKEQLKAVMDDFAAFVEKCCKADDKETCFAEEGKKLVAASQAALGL
# T2 sequence (P02768 25-609): as above
Compound,IC50 [5] [µM],"IC50 [6, 12] [nM]","IC50 [6, 13] [nM]","IC50 [6, 14] [nM]","IC50 [7, 15] [nM]","IC50 [7, 16] [nM]",SR (MES-SA/B1) [7],"IC50 [8, 17] [nM]","IC50 [8, 18] [nM]",SR (MES-SA/Dx5) [8],logK Q′ (quenching constant) [1],logK WF′ (WF displacement constant) [9],further results
[Ru].c1cnc2c(c1)ccc1cccnc12.c1cnc2c(c1)ccc1cccnc12.c1cnc2c(c1)ccc1cccnc12 [[Ru(PHEN)3]^2+],,,,,,,,,,,,,interaction with HSA ([1]; ref number not given): negligible interaction
"c1cnc2c(c1)ccc1cccnc12 [PHEN, 1,10-phenanthroline]",3.2 to 8.6,3000,2950,2950,1390,1380,2.1,410,417,7.1,,,"IC50 ([2]; Homo sapiens, MCF7, 72 h, 384-well plate, read-out: IC50): 8.57 µM; IC50 ([2]; Homo sapiens, MCF7, Table S5, read-out: pIC50 (mean) (converted)): 8.51 µM; IC50 [3, 10]: 3.2 µM; IC50 [3, 11]: 3.16 µM; IC50 [4, 10]: 5.47 µM; IC50 [4, 11]: 5.5 µM"
[Rh(η^5-C5Me5)Cl2]2 [RhCp*precursor],,,,,,,,,,,5.8 ^a,6.1 ^a,logK Q′ (quenching constant) ([1]; listed as precursor RhCp*): 5.8
[Ru(η^6-p-cymene)Cl2]2 [RuCym precursor],,,,,,,,,,,5.7 ^a,5.9 ^a,
COc1cc([C@@H]2c3cc4c(cc3[C@@H](O[C@@H]3O[C@@H]5CO[C@@H](C)O[C@H]5[C@H](O)[C@H]3O)[C@H]3COC(=O)[C@H]23)OCO4)cc(OC)c1O [etoposide],,200,200,,1190,1170,0.2,2080,2090,0.1,,,resistance of MES-SA/B1 versus parental line ([7]; coculture): 6 fold; resistance of MES-SA/Dx5 versus parental line ([8]; coculture): 10 fold
N.N.[Cl][Pt][Cl] [cisplatin],3.2 to 7,,,1490,,,0.9,,,0.3,,,"IC50 [2, 19]: 4.78 µM; pIC50 (mean) ([2]; Table S5): 5.32; IC50 [3, 19]: 3.16 µM; pIC50 (mean) ([3]; Table S5): 5.50; IC50 [4, 19]: 6.98 µM; pIC50 (mean) ([4]; Table S5): 5.16; pIC50 (mean) ([6]; Mes-Sa mCherry, Table S6): 5.83; IC50 ([7]; MES-SA/B1-mOrange, coculture, 144 h, read-out: IC50): 1710 nM; pIC50 (mean) ([7]; Mes-Sa/B1 mOrange, Table S6): 5.77; IC50 ([8]; MES-SA/Dx5-eGFP, coculture, 144 h, read-out: IC50): 4280 nM; pIC50 (mean) ([8]; Mes-Sa/Dx5 eGFP, Table S6): 5.37"

# — article PMC12308784, “Organometallic Half-Sandwich Complexes of 1,10-Phenanthroline Derivatives with Improved Solubility, Albumin-Binding, and Nanoformulation Potential Targeting Drug Resistance in Cancer” (Inorganic Chemistry, 2025)
